Measurements reported in patent US20230157952A1, “METHOD FOR IMPROVING THE STABILITY OF A PHARMACEUTICAL COMPOSITION COMPRISING A HIGH PENETRATION DRUG, AND THE PHARMACEUTICAL COMPOSITION OBTAINED THEREFROM” (Techfields Inc., priority 2020, published 2023).

Key:
[1] = Effect of concentration on the stability of the solution (purity over time); conditions: in water at 25° C.
[2] = Effect of temperature (and pH) on the stability of the solution (purity); format: physicochemical; conditions: 7% solution in water

CCN(CC)CCOC(=O)Cc1c(C)n(C(=O)c2ccc(Cl)cc2)c2ccc(OC)cc12.Cl [2-(diethylamino)ethyl 1-(4-chlorobenzoyl)-5-methoxy-2-methyl-1H-indole-3-acetate•HCl]
Purity at Day 3 ([1]; 0.01 wt %): 84.2% | Purity at Day 7 ([1]; 0.01 wt %): 72.9% | Purity at Day 14 ([1]; 0.01 wt %): 61.3% | Purity at Day 21 ([1]; 0.01 wt %): 53.4% | Purity at Day 28 ([1]; 0.01 wt %): 45.5% | Purity at hr 0 ([1]; 0.01 wt %): 98.0% | Purity at Day 3 ([1]; 0.1 wt %): 96.3% | Purity at Day 7 ([1]; 0.1 wt %): 93.6% | Purity at Day 14 ([1]; 0.1 wt %): 88.9% | Purity at Day 21 ([1]; 0.1 wt %): 84.7% | Purity at Day 28 ([1]; 0.1 wt %): 78.7% | Purity at hr 0 ([1]; 0.1 wt %): 98.2% | Purity at Day 3 ([1]; 1 wt %): 97.2% | Purity at Day 7 ([1]; 1 wt %): 96.1% | Purity at Day 14 ([1]; 1 wt %): 94.0% | Purity at Day 21 ([1]; 1 wt %): 92.4% | Purity at Day 28 ([1]; 1 wt %): 91.2% | Purity at hr 0 ([1]; 1 wt %): 98.3% | Purity at Day 3 ([1]; 3 wt %): 97.8% | Purity at Day 7 ([1]; 3 wt %): 97.2% | Purity at Day 14 ([1]; 3 wt %): 96.0% | Purity at Day 21 ([1]; 3 wt %): 95.0% | Purity at Day 28 ([1]; 3 wt %): 94.1% | Purity at hr 0 ([1]; 3 wt %): 98.4% | Purity at Day 3 ([1]; 5 wt %): 98.3% | Purity at Day 7 ([1]; 5 wt %): 98.0% | Purity at Day 14 ([1]; 5 wt %): 97.7% | Purity at Day 21 ([1]; 5 wt %): 97.1% | Purity at Day 28 ([1]; 5 wt %): 96.5% | Purity at hr 0 ([1]; 5 wt %): 98.5% | Purity at Day 3 ([1]; 7 wt %): 98.4% | Purity at Day 7 ([1]; 7 wt %): 98.2% | Purity at Day 14 ([1]; 7 wt %): 98.0% | Purity at Day 21 ([1]; 7 wt %): 97.7% | Purity at Day 28 ([1]; 7 wt %): 97.4% | Purity at hr 0 ([1]; 7 wt %): 98.5% | Purity at Day 3 ([1]; 8 wt %): 98.4% | Purity at Day 7 ([1]; 8 wt %): 98.3% | Purity at Day 14 ([1]; 8 wt %): 98.0% | Purity at Day 21 ([1]; 8 wt %): 97.8% | Purity at Day 28 ([1]; 8 wt %): 97.4% | Purity at hr 0 ([1]; 8 wt %): 98.6% | Purity at Day 3 ([1]; 10 wt %): 98.4% | Purity at Day 7 ([1]; 10 wt %): 98.3% | Purity at Day 14 ([1]; 10 wt %): 98.2% | Purity at Day 21 ([1]; 10 wt %): 98.0% | Purity at Day 28 ([1]; 10 wt %): 97.6% | Purity at hr 0 ([1]; 10 wt %): 98.5% | Purity at Day 3 ([1]; 15 wt %): 98.4% | Purity at Day 7 ([1]; 15 wt %): 98.2% | Purity at Day 14 ([1]; 15 wt %): 98.1% | Purity at Day 21 ([1]; 15 wt %): 98.0% | Purity at Day 28 ([1]; 15 wt %): 97.5% | Purity at hr 0 ([1]; 15 wt %): 98.5% | Purity at Day 3 ([1]; 20 wt %): 98.4% | Purity at Day 7 ([1]; 20 wt %): 98.5% | Purity at Day 14 ([1]; 20 wt %): 98.2% | Purity at Day 21 ([1]; 20 wt %): 98.1% | Purity at Day 28 ([1]; 20 wt %): 97.7% | Purity at hr 0 ([1]; 20 wt %): 98.6% | Purity at Day 3 ([1]; 30 wt %): 98.5% | Purity at Day 7 ([1]; 30 wt %): 98.3% | Purity at Day 14 ([1]; 30 wt %): 98.0% | Purity at Day 21 ([1]; 30 wt %): 98.1% | Purity at Day 28 ([1]; 30 wt %): 97.5% | Purity at hr 0 ([1]; 30 wt %): 98.5% | Purity at Day 3 ([1]; 50 wt %): 98.5% | Purity at Day 7 ([1]; 50 wt %): 98.4% | Purity at Day 14 ([1]; 50 wt %): 98.1% | Purity at Day 21 ([1]; 50 wt %): 97.9% | Purity at Day 28 ([1]; 50 wt %): 97.6% | Purity at hr 0 ([1]; 50 wt %): 98.6% | Stability when the concentration is 0.1% or lower [1]: not stable | Stability of the solution at a temperature higher than 40° C. and a pH lower than 3 or greater than 6 [2]: not stable

CCN(CC)CCOC(=O)COC(=O)Cc1c(C)n(C(=O)c2ccc(Cl)cc2)c2ccc(OC)cc12.Cl [2-(diethylamino)ethyl 1-(4-chlorobenzoyl-5-methoxy-2-methyl-1H-indole-3-acetoxyacetate.HCl]
Stability of the solution at a temperature higher than 40° C. and a pH lower than 3 or greater than 6 [2]: not stable

CCN(CC)CCOC(=O)Cc1ccc(C(=O)c2ccc(C)cc2)n1C.Cl [2-(diethylamino)ethyl 1-methyl-5-(4-methylbenzoyl)-1H-pyrrole-2-acetate•HCl]
Purity at Day 3 ([1]; 0.01 wt %): 82.3% | Purity at Day 7 ([1]; 0.01 wt %): 72.2% | Purity at Day 14 ([1]; 0.01 wt %): 57.4% | Purity at Day 21 ([1]; 0.01 wt %): 45.4% | Purity at Day 28 ([1]; 0.01 wt %): 35.7% | Purity at hr 0 ([1]; 0.01 wt %): 97.4% | Purity at Day 3 ([1]; 0.1 wt %): 95.6% | Purity at Day 7 ([1]; 0.1 wt %): 93.3% | Purity at Day 14 ([1]; 0.1 wt %): 88.3% | Purity at Day 21 ([1]; 0.1 wt %): 83.5% | Purity at Day 28 ([1]; 0.1 wt %): 78.1% | Purity at hr 0 ([1]; 0.1 wt %): 97.5% | Purity at Day 3 ([1]; 1 wt %): 95.7% | Purity at Day 7 ([1]; 1 wt %): 94.6% | Purity at Day 14 ([1]; 1 wt %): 92.3% | Purity at Day 21 ([1]; 1 wt %): 90.1% | Purity at Day 28 ([1]; 1 wt %): 88.6% | Purity at hr 0 ([1]; 1 wt %): 97.7% | Purity at Day 3 ([1]; 3 wt %): 96.5% | Purity at Day 7 ([1]; 3 wt %): 96.2% | Purity at Day 14 ([1]; 3 wt %): 94.8% | Purity at Day 21 ([1]; 3 wt %): 94.0% | Purity at Day 28 ([1]; 3 wt %): 92.7% | Purity at hr 0 ([1]; 3 wt %): 97.9% | Purity at Day 3 ([1]; 5 wt %): 97.2% | Purity at Day 7 ([1]; 5 wt %): 97.0% | Purity at Day 14 ([1]; 5 wt %): 96.8% | Purity at Day 21 ([1]; 5 wt %): 95.6% | Purity at Day 28 ([1]; 5 wt %): 94.4% | Purity at hr 0 ([1]; 5 wt %): 97.9% | Purity at Day 3 ([1]; 7 wt %): 97.5% | Purity at Day 7 ([1]; 7 wt %): 97.2% | Purity at Day 14 ([1]; 7 wt %): 97.2% | Purity at Day 21 ([1]; 7 wt %): 96.7% | Purity at Day 28 ([1]; 7 wt %): 96.5% | Purity at hr 0 ([1]; 7 wt %): 98.1% | Purity at Day 3 ([1]; 8 wt %): 97.7% | Purity at Day 7 ([1]; 8 wt %): 97.3% | Purity at Day 14 ([1]; 8 wt %): 96.9% | Purity at Day 21 ([1]; 8 wt %): 96.9% | Purity at Day 28 ([1]; 8 wt %): 96.6% | Purity at hr 0 ([1]; 8 wt %): 98.1% | Purity at Day 3 ([1]; 10 wt %): 97.9% | Purity at Day 7 ([1]; 10 wt %): 97.5% | Purity at Day 14 ([1]; 10 wt %): 97.3% | Purity at Day 21 ([1]; 10 wt %): 97.1% | Purity at Day 28 ([1]; 10 wt %): 96.5% | Purity at hr 0 ([1]; 10 wt %): 98.2% | Purity at Day 3 ([1]; 15 wt %): 97.7% | Purity at Day 7 ([1]; 15 wt %): 97.6% | Purity at Day 14 ([1]; 15 wt %): 97.4% | Purity at Day 21 ([1]; 15 wt %): 97.1% | Purity at Day 28 ([1]; 15 wt %): 96.8% | Purity at hr 0 ([1]; 15 wt %): 98.1% | Purity at Day 3 ([1]; 20 wt %): 97.6% | Purity at Day 7 ([1]; 20 wt %): 97.5% | Purity at Day 14 ([1]; 20 wt %): 97.2% | Purity at Day 21 ([1]; 20 wt %): 97.1% | Purity at Day 28 ([1]; 20 wt %): 96.8% | Purity at hr 0 ([1]; 20 wt %): 98.0% | Purity at Day 3 ([1]; 30 wt %): 97.7% | Purity at Day 7 ([1]; 30 wt %): 97.5% | Purity at Day 14 ([1]; 30 wt %): 97.3% | Purity at Day 21 ([1]; 30 wt %): 97.0% | Purity at Day 28 ([1]; 30 wt %): 96.7% | Purity at hr 0 ([1]; 30 wt %): 98.1% | Purity at Day 3 ([1]; 50 wt %): 97.8% | Purity at Day 7 ([1]; 50 wt %): 97.5% | Purity at Day 14 ([1]; 50 wt %): 97.2% | Purity at Day 21 ([1]; 50 wt %): 96.9% | Purity at Day 28 ([1]; 50 wt %): 96.8% | Purity at hr 0 ([1]; 50 wt %): 98.2% | Stability when the concentration is 0.1% or lower [1]: not stable | Stability of the solution at a temperature higher than 40° C. and a pH lower than 3 or greater than 6 [2]: not stable

CCN(CC)CCOC(=O)Cc1ccccc1Oc1ccc(Cl)cc1Cl.Cl [2-(diethylamino)ethyl 2-(2,4-dichlorophenoxy)benzeneacetate.HCl]
Stability of the solution at a temperature higher than 40° C. and a pH lower than 3 or greater than 6 [2]: not stable

CCN(CC)CCOC(=O)COc1nn(Cc2ccccc2)c2ccccc12.Cl [2-(diethylamino)ethyl [(1-benzyl-1H-indazol-3-yl)oxy]acetate•HCl]
Stability of the solution at a temperature higher than 40° C. and a pH lower than 3 or greater than 6 [2]: not stable
